Measured values reported in PubChem BioAssay AID330 (DTP/NCI, 2004).
“And” between values parts separate entries of the source, which are not always exact repeats. Identical values can stand only once. Inconclusive results and toxic doses are left out. Rule for the calls: active = survival T/C of 150% or more; inactive = T/C below 125% in these data.

Test system: P388 leukemia ip, CD2F1 mice, survival T/C
Assay: NCI In Vivo Anticancer Drug Screen. Data for tumor model P388 Leukemia (intraperitoneal) in CD2F1 (CDF1) mice
Settings: endpoint: median survival time, higher = longer survival
Procedure, shortened: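 Mice carrying the transplanted tumor received test compound or vehicle. Survival was recorded in each group, and the value is the treated-group measurement divided by that of the vehicle-treated control group.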

[1] = dose: 100.0 mg/kg/injection, schedule: Q01DX001 (ip), vehicle: Klucel (hydroxypropylcellulose) (HPC)
[2] = dose: 200.0 mg/kg/injection, schedule: Q01DX001 (ip), vehicle: Klucel (hydroxypropylcellulose) (HPC)
[3] = dose: 400.0 mg/kg/injection, schedule: Q01DX001 (ip), vehicle: Klucel (hydroxypropylcellulose) (HPC)
[4] = dose: 25.0 mg/kg/injection, schedule: Q01DX009 (ip), vehicle: saline
[5] = dose: 50.0 mg/kg/injection, schedule: Q01DX009 (ip), vehicle: saline
[6] = dose: 100.0 mg/kg/injection, schedule: Q01DX009 (ip), vehicle: saline
[7] = dose: 12.5 mg/kg/injection, schedule: Q01DX009 (ip), vehicle: saline with Tween-80
[8] = dose: 25.0 mg/kg/injection, schedule: Q01DX009 (ip), vehicle: saline with Tween-80
[9] = dose: 50.0 mg/kg/injection, schedule: Q01DX009 (ip), vehicle: saline with Tween-80

Measured: T/C

COc1ccc(/C=C/C(=O)c2ccccc(=O)c2O)cc1
inactive: dose: 50.0 mg/kg/injection, schedule: Q01DX001 (ip), vehicle: Klucel (hydroxypropylcellulose) (HPC) 106 % of control | [1] 101 % of control | [2] 105 % of control | [3] 92 % of control

Cc1cc(=O)n(-c2ccc(-c3ccc(-n4c(C)c(C(=O)O)c(C)cc4=O)cc3)cc2)c(C)c1C(=O)O
inactive: dose: 50.0 mg/kg/injection, schedule: Q01DX005 (ip), vehicle: saline with Tween-80 102 % of control | dose: 100.0 mg/kg/injection, schedule: Q01DX005 (ip), vehicle: saline with Tween-80 100 % of control | dose: 200.0 mg/kg/injection, schedule: Q01DX005 (ip), vehicle: saline with Tween-80 106 % of control

N#CN=C(N)N=P(c1ccccc1)(c1ccccc1)c1ccccc1
inactive: [1] 97 % of control | [2] 100 % of control | [3] 91 % of control

O=Cc1ccc2c(c1)OCCOCCOCCOCCO2
inactive: [4] 100 % of control and 97 % of control | [5] 99 % of control and 111 % of control | [6] 105 % of control and 94 % of control | dose: 200.0 mg/kg/injection, schedule: Q01DX009 (ip), vehicle: saline 102 % of control and 92 % of control

c1cnc2ccc3ncccc3c2c1
inactive: dose: 12.5 mg/kg/injection, schedule: Q01DX005 (ip), vehicle: Klucel (hydroxypropylcellulose) (HPC) 99 % of control | dose: 25.0 mg/kg/injection, schedule: Q01DX005 (ip), vehicle: Klucel (hydroxypropylcellulose) (HPC) 96 % of control | dose: 50.0 mg/kg/injection, schedule: Q01DX005 (ip), vehicle: Klucel (hydroxypropylcellulose) (HPC) 100 % of control and 97 % of control

C#CC(C)(O)C(C)(C)C (configuration not stated)
inactive: [4] 88 % of control | [5] 98 % of control | [6] 98 % of control

Cc1cc(C)n(-c2nnc(-n3nc(C)cc3C)c3ccccc23)n1
inactive: [5] 94 % of control | [6] 87 % of control

COc1cc2c(cc1OC)C(C#N)(Cc1cccc3ccccc13)N(C(=O)c1ccccc1)C=C2 (configuration not stated)
inactive: dose: 60.0 mg/kg/injection, schedule: Q01DX005 (ip), vehicle: saline with Tween-80 99 % of control | dose: 120.0 mg/kg/injection, schedule: Q01DX005 (ip), vehicle: saline with Tween-80 101 % of control | dose: 240.0 mg/kg/injection, schedule: Q01DX005 (ip), vehicle: saline with Tween-80 99 % of control

O=C1CCSC(=S)N1c1ccccc1C(F)(F)F
inactive: dose: 50.0 mg/kg/injection, schedule: Q01DX009 (ip), vehicle: suspension in saline 90 % of control | dose: 100.0 mg/kg/injection, schedule: Q01DX009 (ip), vehicle: suspension in saline 92 % of control | dose: 200.0 mg/kg/injection, schedule: Q01DX009 (ip), vehicle: suspension in saline 99 % of control

CCOC(=O)CON1C(=O)CCC1=O
inactive: dose: 25.0 mg/kg/injection, schedule: Q01DX005 (ip), vehicle: saline 102 % of control | dose: 50.0 mg/kg/injection, schedule: Q01DX005 (ip), vehicle: saline 102 % of control | dose: 100.0 mg/kg/injection, schedule: Q01DX005 (ip), vehicle: saline 100 % of control | dose: 200.0 mg/kg/injection, schedule: Q01DX005 (ip), vehicle: saline 105 % of control

CCO/C([O-])=C(/C(=N/S(=O)(=O)c1ccc(C)cc1)SC)[n+]1ccccc1
inactive: dose: 25.0 mg/kg/injection, schedule: Q04DX002 (ip), vehicle: saline with Tween-80 100 % of control | dose: 50.0 mg/kg/injection, schedule: Q04DX002 (ip), vehicle: saline with Tween-80 99 % of control | dose: 100.0 mg/kg/injection, schedule: Q04DX002 (ip), vehicle: saline with Tween-80 99 % of control

C=C1C(=O)OC2/C=C(\C)CC(O)/C=C(\C)CC(OC(=O)/C(=C\C)COC(C)=O)C12 (configuration not stated)
inactive: dose: 6.25 mg/kg/injection, schedule: Q01DX009 (ip), vehicle: saline with Tween-80 98 % of control | [7] 97 % of control | [8] 104 % of control | [9] 104 % of control

CCC[CH2][Sn]([CH2]CCC)([CH2]CCC)[C]1(CCCC2CO2)SCCCS1 (configuration not stated)
inactive: [7] 86 % of control | [8] 94 % of control | [9] 108 % of control
